Assay results: ChEMBL document CHEMBL6103571, “Design, synthesis, and evaluation of carboxylic acid-substituted celecoxib isosteres as potential anti-inflammatory agents” (Eur J Med Chem, 2025)

What was measured:
[1] = Cytotoxicity against mouse RAW264.7 cells incubated for 24 hrs by MTT assay; type: toxicity, cell-based
[2] = test system: RAW264.7; test: Anti-inflammatory activity against LPS-induced mouse RAW264.7 cells assessed as inhibition of NO production at 20 uM preincubated for 1 hrs followed by LPS addition and measured after 24 hrs by Griess reagent-based microplate reader analysis relative to control; type: functional; conditions: time 25 hrs

NS(=O)(=O)c1ccc(-c2nnc(SCC(=O)O)n2-c2cccc(C(F)(F)F)c2)cc1
IC50 at 24 h [1]: > 100 µM
inhibition at 20 µM [2]: 21.1%

NS(=O)(=O)c1ccc(-c2nnc(SCC(=O)O)n2-c2ccc(Cl)cc2)cc1
IC50 at 24 h [1]: > 100 µM
inhibition at 20 µM [2]: 22.4%

NS(=O)(=O)c1ccc(-c2nnc(SCC(=O)O)n2-c2cccc(Cl)c2)cc1
IC50 at 24 h [1]: > 100 µM
inhibition at 20 µM [2]: 19.1%

NS(=O)(=O)c1ccc(-c2nnc(SCC(=O)O)n2-c2cccc(Br)c2)cc1
IC50 at 24 h [1]: > 100 µM
inhibition at 20 µM [2]: 14.1%

COc1ccc(-n2c(SCC(=O)O)nnc2-c2ccc(S(N)(=O)=O)cc2)cc1
IC50 at 24 h [1]: > 100 µM
inhibition at 20 µM [2]: 18.7%

NS(=O)(=O)c1ccc(-c2nnc(SCC(=O)O)n2-c2ccc([N+](=O)[O-])cc2)cc1
IC50 at 24 h [1]: > 100 µM
inhibition at 20 µM [2]: 23.9%

Cc1cccc(-n2c(SCC(=O)O)nnc2-c2ccc(S(N)(=O)=O)cc2)c1
IC50 at 24 h [1]: 76.6 µM
inhibition at 20 µM [2]: 17.7%

NS(=O)(=O)c1ccc(-c2nnc(SCC(=O)O)n2-c2ccccc2I)cc1
IC50 at 24 h [1]: > 100 µM
inhibition at 20 µM [2]: 17.9%

NS(=O)(=O)c1ccc(-c2nnc(SCC(=O)O)n2-c2ccccc2[N+](=O)[O-])cc1
IC50 at 24 h [1]: > 100 µM
inhibition at 20 µM [2]: 13.8%

Cc1ccccc1-n1c(SCC(=O)O)nnc1-c1ccc(S(N)(=O)=O)cc1
IC50 at 24 h [1]: > 100 µM
inhibition at 20 µM [2]: 18.8%

COc1cccc(-n2c(SCC(=O)O)nnc2-c2ccc(S(N)(=O)=O)cc2)c1
IC50 at 24 h [1]: > 100 µM
inhibition at 20 µM [2]: 15.6%

NS(=O)(=O)c1ccc(-c2nnc(SCC(=O)O)n2-c2ccccc2F)cc1
IC50 at 24 h [1]: > 100 µM
inhibition at 20 µM [2]: 13.6%

NS(=O)(=O)c1ccc(-c2nnc(SCC(=O)O)n2-c2ccc(C(F)(F)F)cc2)cc1
IC50 at 24 h [1]: 62.2 µM
inhibition at 20 µM [2]: 22.6%
